Results taken from patent US7723372B2, “Spiroindolinone derivatives” (Hoffman-La Roche Inc., priority 2008, dated 2010).

molecular target: interaction between p53 and MDM2 proteins (recombinant GST-tagged MDM2, biotinylated p53 peptide) (Homo sapiens, UniProt Q00987); test: HTRF assay of inhibition of the p53-MDM2 interaction; type: binding; conditions: 0.02% BSA
Procedure: The ability of the compounds to inhibit the interaction between p53 and MDM2 proteins was measured by an HTRF (homogeneous time-resolved fluorescence) assay in which recombinant GST-tagged MDM2 binds to a peptide that resembles the MDM2-interacting region of p53 (Lane et al.), Binding of GST-MDM2 protein and p53-peptide (biotinylated on its N-terminal end) is registered by the FRET (fluorescence resonance energy transfer) between Europium (Eu)-labeled ant-GST antibody and streptavidin-conjugated Allophycocyanin (APC).
[…] Add 10 uL diluted compounds (1:5 dilution in reaction buffer) to each well, mix by shaking. Add 20 uL biotinylated p53 peptide (180 nM working solution) in reaction buffer to each well and mix on shaker. Incubate at 37° C. for 1 h. Add 20 uL streptavidin-APC and Eu-anti-GST antibody mixture (6 nM Eu-anti-GST and 60 nM streptavidin-APC working solution) in TBS buffer with 0.2% BSA, shake at room temperature for 30 minutes and read using a TRF-capable plate reader at 665 and 615 nm (Victor 5, Perkin ElmerWallac). If not specified, the reagents were purchased from Sigma Chemical Co.

Chain of interaction between p53 and MDM2 proteins (recombinant GST-tagged MDM2, biotinylated p53 peptide) (Q00987 whole entry): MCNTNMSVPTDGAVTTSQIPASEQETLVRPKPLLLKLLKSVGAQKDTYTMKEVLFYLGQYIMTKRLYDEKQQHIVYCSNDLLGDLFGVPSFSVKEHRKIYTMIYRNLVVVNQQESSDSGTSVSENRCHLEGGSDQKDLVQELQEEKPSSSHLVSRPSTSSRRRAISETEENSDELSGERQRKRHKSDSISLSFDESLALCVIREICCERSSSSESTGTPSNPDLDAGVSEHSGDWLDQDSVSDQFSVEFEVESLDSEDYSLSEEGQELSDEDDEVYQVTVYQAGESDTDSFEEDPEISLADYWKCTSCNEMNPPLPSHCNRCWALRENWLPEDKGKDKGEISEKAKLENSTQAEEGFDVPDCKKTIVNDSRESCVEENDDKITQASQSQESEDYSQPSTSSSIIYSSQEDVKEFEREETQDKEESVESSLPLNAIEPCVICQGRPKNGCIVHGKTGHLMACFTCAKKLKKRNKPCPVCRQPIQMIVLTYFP

IC50 [µM] | Structure (SMILES)
1.39 | C=Cc1ccccc1C1=CC(=O)C[C@@H](c2cccc(Cl)c2)[C@]12C(=O)Nc1cc(Cl)ccc12 (racemic) [Example 44 (Compound A), rac-(1R,6S)-6′-chloro-6-(3-chlorophenyl)-2-(2-ethylenephenyl)spiro[2-cyclohexene-1,3′-[3H]indole]-2′,4(1′H)-dione]
5.9 | C/C=C/C1=CC(=O)C[C@@H](c2cccc(Cl)c2)[C@]12C(=O)Nc1cc(Cl)ccc12 (racemic) [Example 10 (Compound B), rac-(1S,6S)-6′-chloro-6-(3-chlorophenyl)-2-(E)-(1-propenyl)spiro[2-cyclohexene-1,3′-[3H]indole]-2′,4(1′H)-dione]
1.66 | O=C1C[C@@H](c2cccc(Cl)c2)[C@@]2(C=C1c1cc(F)ccc1O)C(=O)Nc1cc(Cl)ccc12 (racemic) [Example 17, rac-(1R,6S)-6′-chloro-6-(3-chlorophenyl)-3-(5-fluoro-2-hydroxyphenyl)spiro[2-cyclohexene-1,3′-[3H]indole]-2′,4(1′H)-dione]
2.99 | O=C1C[C@@H](c2cccc(Cl)c2)[C@@]2(C=C1c1ccc(F)cc1O)C(=O)Nc1cc(Cl)ccc12 (racemic) [Example 18, rac-(1R,6S)-6′-chloro-6-(3-chlorophenyl)-3-(4-fluoro-2-hydroxyphenyl)spiro[2-cyclohexene-1,3′-[3H]indole]-2′,4(1′H)-dione]
1.6 | Cc1ccc(F)cc1C1=C[C@@]2(C(=O)Nc3cc(Cl)ccc32)[C@H](c2cccc(Cl)c2)C[C@@H]1O (racemic) [Example 5, rac-(1R, 4S, 6S)-6′-chloro-6-(3-chlorophenyl)-3-(5-fluoro-2-methylphenyl)-4-hydroxyspiro[2-cyclohexene-1,3′-[3H]indol]-2′(1′H)-one]
